Laboratory results taken from paper PMC10099813, “Stafiba: A STAT5‐Selective Small‐Molecule Inhibitor” (Chembiochem, 2022).

Tests used:
[1] = biological target: T1, STAT5a (Homo sapiens, UniProt P42229); assay: Competitive fluorescence polarization (FP) binding assay, STAT5a SH2 domain; conditions: FP assay; for Ki: Ki calculated from IC50 (n=3) via published equation; for Ki / IC50: 2 % DMSO (10 % DMSO for 10); for IC50: n=3 unless stated; for inhibition at 100 µM: the highest concentration tested, read-out: maximum inhibition at 100 µM (STAT5a)
T1 sequence (P42229 1-794): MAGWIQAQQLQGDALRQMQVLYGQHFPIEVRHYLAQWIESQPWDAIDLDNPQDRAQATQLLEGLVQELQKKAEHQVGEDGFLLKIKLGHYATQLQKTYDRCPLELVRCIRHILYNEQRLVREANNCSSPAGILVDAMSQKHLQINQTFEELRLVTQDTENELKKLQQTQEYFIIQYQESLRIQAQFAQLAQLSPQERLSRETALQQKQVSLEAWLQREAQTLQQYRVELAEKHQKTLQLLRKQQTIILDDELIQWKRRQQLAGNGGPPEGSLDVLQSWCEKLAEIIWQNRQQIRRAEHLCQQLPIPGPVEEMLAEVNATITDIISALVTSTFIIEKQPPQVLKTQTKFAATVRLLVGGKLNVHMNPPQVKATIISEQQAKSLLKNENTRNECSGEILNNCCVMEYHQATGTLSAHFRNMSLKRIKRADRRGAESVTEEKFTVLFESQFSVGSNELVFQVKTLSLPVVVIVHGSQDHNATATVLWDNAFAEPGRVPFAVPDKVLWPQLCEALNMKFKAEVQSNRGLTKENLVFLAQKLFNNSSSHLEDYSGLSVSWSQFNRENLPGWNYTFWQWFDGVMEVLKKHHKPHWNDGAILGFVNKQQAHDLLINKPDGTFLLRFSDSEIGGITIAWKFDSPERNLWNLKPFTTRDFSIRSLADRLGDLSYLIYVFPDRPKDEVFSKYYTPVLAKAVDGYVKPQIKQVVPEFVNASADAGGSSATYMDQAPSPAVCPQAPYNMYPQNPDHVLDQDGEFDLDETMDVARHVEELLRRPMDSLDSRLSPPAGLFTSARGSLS
Method: (§1) Fluorescence polarization assays: Competitive binding assays based on fluorescence polarization were carried out essentially as previously described.[[4a]] Unless stated otherwise, final concentrations of the buffer components were: 10 mM Tris (pH 8.0), 50 mM NaCl, 1 mM EDTA, 1 mM DTT, 0.1 % (v/v) Nonidet P‐40 substitute, and 2 % DMSO. Proteins were used at concentrations which reflect the Kd values of the interactions between the fluoropeptide and the protein preparations. Protein concentrations used for activity analysis of compound 5 were 91 nM for STAT1, 107 nM for STAT3, 28 nM for STAT4, 122 nM for STAT5a, 56 nM for STAT5b and 101 nM for STAT6. Protein concentrations used for activity analysis of AC‐4‐130 were 103 nM for STAT5a and 62 nM for STAT5b. […] Final concentration of all fluorescent‐labelled peptides was 10 nM. The following peptides were used in assays: 5‐carboxyfluorescein‐GpYDKPHVL for STAT1; 5‐carboxyfluorescein‐GpYLPQTV‐NH2 for STAT3; 5‐carboxyfluorescein‐GpYLPQNID for STAT4; 5‐carboxyfluorescein‐GpYLVLDKW for STAT5a/5b, and 5‐carboxyfluorescein‐GpYVPWQDLI for STAT6. Protein and test compounds were incubated for 1 h prior to addition of the fluorescein‐labeled peptide. Fluorescence polarization was measured after another 60 min using an Infinite F500 plate reader (Tecan). IC50 values were converted to Ki‐values using the published equation.[13]

[2] = biological target: T2, STAT5b (Homo sapiens, UniProt P51692); assay: Competitive fluorescence polarization (FP) binding assay, STAT5b SH2 domain; conditions: FP assay; for Ki: Ki calculated from IC50 (n=3) via published equation; for Ki / IC50: 2 % DMSO (10 % DMSO for 10); for IC50: n=3
T2 sequence (P51692 1-787): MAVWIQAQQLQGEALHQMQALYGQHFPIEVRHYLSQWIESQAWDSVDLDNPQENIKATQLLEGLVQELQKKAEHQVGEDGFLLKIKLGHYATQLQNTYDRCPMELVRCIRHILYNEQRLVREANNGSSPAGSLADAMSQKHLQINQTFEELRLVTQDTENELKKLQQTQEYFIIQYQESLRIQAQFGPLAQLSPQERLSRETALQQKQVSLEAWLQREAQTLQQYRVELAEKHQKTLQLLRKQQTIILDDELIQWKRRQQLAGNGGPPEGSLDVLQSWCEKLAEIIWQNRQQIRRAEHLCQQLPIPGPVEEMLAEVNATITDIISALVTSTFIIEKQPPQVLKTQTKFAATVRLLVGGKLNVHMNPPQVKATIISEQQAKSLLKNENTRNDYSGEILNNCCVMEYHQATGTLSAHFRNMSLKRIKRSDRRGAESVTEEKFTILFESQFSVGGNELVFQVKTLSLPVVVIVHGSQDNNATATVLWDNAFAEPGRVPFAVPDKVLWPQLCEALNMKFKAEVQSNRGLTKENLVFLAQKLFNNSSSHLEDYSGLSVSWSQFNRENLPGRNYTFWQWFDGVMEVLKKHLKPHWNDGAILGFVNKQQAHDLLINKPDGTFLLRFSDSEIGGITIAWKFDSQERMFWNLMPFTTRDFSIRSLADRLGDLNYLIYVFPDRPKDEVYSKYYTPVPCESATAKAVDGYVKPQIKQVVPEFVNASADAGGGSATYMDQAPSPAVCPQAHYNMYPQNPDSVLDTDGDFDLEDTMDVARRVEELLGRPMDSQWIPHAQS
Method: as §1

[3] = Solubility as observed during synthesis / stock preparation; assay type: physicochemical; conditions: remark on synthesis

Compound | Ki [1] [µM] | IC50 [1] [µM] | Ki [2] [µM] | IC50 [2] [µM] | inhibition at 100 µM [1] [%] | inhibition at 100 µM ([2]; 100 µM, read-out: maximum inhibition at 100 µM (STAT5b)) [%] | increase of activity against STAT5a relative to resorcinol bisphosphate (1) ([1]; ratio of Ki values) [fold] | increase of activity against STAT5b relative to resorcinol bisphosphate (1) ([2]; ratio of Ki values) [fold] | solubility of the final product [3]
O=P(O)(O)Oc1ccc(F)c(OP(=O)(O)O)c1 [compound 6] | 29.4 ± 0.6 | 59.4 ± 1.2 | 27.4 ± 2.8 | 55.8 ± 5.6 | – | – | – | – | –
CC(=O)NCc1ccc(OP(=O)(O)O)cc1OP(=O)(O)O [compound 2] | – | – | 42.1 ± 1.6 | 85.7 ± 3.2 | 50 ± 3 | – | – | – | –
O=P(O)(O)Oc1cccc(OP(=O)(O)O)c1 [compound 1, 1,3-Phenylene bis(dihydrogen phosphate)] | 23.3 ± 4.9 | 47.2 ± 9.9 | 20.4 ± 0.7 | 41.6 ± 1.4 | – | – | – | – | –
O=P(O)(O)Cc1cccc(CP(=O)(O)O)c1F [compound 8] | – | – | – | – | 12 ± 3 | 14 ± 1 | – | – | –
CC(=O)NCc1cc(OP(=O)(O)O)cc(OP(=O)(O)O)c1 [compound 3] | 36.4 ± 3.8 | 73.8 ± 7.7 | 18.7 ± 0.8 | 38.1 ± 1.6 | – | – | – | – | –
O=P(O)(O)Oc1cccc(OP(=O)(O)O)c1F [compound 7] | 10.8 ± 0.5 | 21.8 ± 0.9 | 7.6 ± 0.4 | 15.5 ± 0.8 | – | – | – | – | –
O=C(COc1ccc(C(=O)Nc2ccc(Oc3ccccc3)cc2)cc1)NCc1cc(OP(=O)(O)O)cc(OP(=O)(O)O)c1 [compound 4] | 2.5 ± 0.5 | 5.2 ± 1 | 0.9 ± 0.1 | 1.9 ± 0.3 | – | – | 9 | 23 | limited solubility
O=P(O)(O)C(F)(F)c1cccc(C(F)(F)P(=O)(O)O)c1F [compound 9] | 15 ± 0.6 | 30.7 ± 1.3 | 18.9 ± 1.5 | 38.4 ± 3 | – | – | – | – | –
